Experimental data published in publication PMC10804407, “Rombocin, a Short Stable Natural Nisin Variant, Displays Selective Antimicrobial Activity against Listeria monocytogenes and Employs a Dual Mode of Action to Kill Target Bacterial Strains” (ACS Synthetic Biology, 2024).
≈ marks a conversion by molar mass, not a printed value.

Experiments:
[1] = Spot-on-lawn assay, peptide-LTA complex formation; type: binding, Lactococcus lactis; conditions: spot-on-lawn (LTA 1 mg/mL, 2 μL) and growth curves, L. lactis MG1363
Protocol: To evaluate the binding of peptide and lipid II or lipoteichoic acid (LTA), an overnight cultured L. lactis MG1363 was added to 0.8% GM17 (w/v, temperature 45 °C) at a final concentration of 0.1% (v/v), and then, the mixture was poured onto 10 mL plates. The binding of peptide and lipid II or LTA was further evaluated by spotting of purified lipid II (300 μM, 2 μL) or LTA (1 mg/mL, 2 μL) to the edge of the inhibition halo of antibiotics. Briefly, antimicrobials were loaded to the agar plate. After the antimicrobial solution drops had dried, lipid II or LTA was spotted to the edge of inhibition halo of antimicrobials. The plates were then incubated overnight at 30 °C after the drops had dried.

[2] = Growth curve-based lipid II/LTA binding assay; type: cell-based, Lactococcus lactis; conditions: L. lactis MG1363, 5 × MIC peptide, 2 µl lipid II, 6 hours, three replicates
Protocol: Screening the antibacterial activity of peptides by spot-on-lawn assay
To prepare the plates, an overnight culture of the strains was added to 0.8% LB agar or GM17agar (wt/vol) at 45 ℃ and mixed to a final concentration of 0.1% (vol/vol) before being poured onto the plates (10 ml each). Next, 5 µl of the precursor peptide and 1 µl of 1 mg/mL NisP were dropped onto the plates and left to dry before incubation. The plates were then incubated overnight at 37°C, except for L. lactis, which was incubated at 30°C.
Evaluation of (methyl)lanthionine formation
16 μL of phosphate-buffered saline (pH 7.4) was added to the samples followed by treatment with 2 μL of 5 mg/mL tris[2-carboxyethyl]phosphine for 30 min at room temperature. Next, 4.5 μL of 25 mg/mL N-ethylmaleimide was added to the samples, which were then incubated at room temperature for 2 h.
Subsequently, the samples were desalted using a C18 ZipTip (Millipore) according to the manufacturer’s instructions and subjected to MALDI-TOF MS analysis.
Growth curve and lipid II/LTA binding assay
Overnight cultures of L. lactis MG1363 were diluted to an OD 600 of 0.05 and added to a 96-well plate, which was incubated at 30°C. […] The growth curve was recorded over the following 6 hours using a microplate spectrophotometer under the same conditions, with three replicates used for each treatment.

L. lactis MG1363 = type: cell-based, Lactococcus lactis; conditions: MG1363
Protocol: (§1) Each experiment was performed in triplicate.

L. lactis = test: Membrane potential determination (DiSC3(5) probe); type: cell-based, Lactococcus lactis; conditions: 5× MIC, 10 mM HEPES with 10 mM glucose pH 7.2, 2 μM DiSC3(5), 25 min
Protocol: To measure the membrane potential, the membrane potential-sensitive fluorescent dye DiSC3(5) was utilized. L. lactis was cultured to an OD600 of 0.8, pelleted at 5000g for 5 min, and washed twice in 10 mM HEPES with 10 mM glucose (pH 7.2). The cell density was adjusted to an OD600 of 0.2 and loaded with 2 μM DiSC3(5) dye, followed by 20 min of incubation in the dark to stabilize the probe fluorescence. Next, the cell suspension was added to a 96-well microplate and incubated for 5 min with 100 mM KCl. […] The fluorescence spectrometer’s excitation and emission wavelengths were adjusted to 622 and 670 nm, respectively. Three technical replicates were performed, and the representative example is shown.

[3] = tested on: S. aureus LMG15975 (MRSA); type: cell-based, Staphylococcus aureus; conditions: LMG15975
Protocol: as §1

S. aureus LMG10147 = type: cell-based, Staphylococcus aureus; conditions: LMG10147
Protocol: as §1

C=C1NC(=O)[C@H]([C@@H](C)CC)NC(=O)C(NC(=O)C(=CC)NC(=O)[C@@H](N)[C@@H](C)CC)CSC[C@@H](C(=O)NC2C(=O)N[C@@H](C)C(=O)NCC(=O)N[C@H](C(=O)N[C@H](C(=O)NC3C(=O)NCC(=O)N[C@@H](C(C)C)C(=O)N[C@@H]([C@@H](C)CC)C(=O)N[C@@H](CCSC)C(=O)NC(=CC)C(=O)N[C@H](C(=O)N[C@@H](CCSC)C(=O)NC4CSC[C@@H](C(=O)N[C@@H](CCCCN)C(=O)O)NC(=O)CNC(=O)[C@H](CC(N)=O)NC4=O)CSC3C)[C@@H](C)CC)CSC2C)NC(=O)[C@H](CC(C)C)NC1=O (stereo partly drawn) [rombocin A]
binding to lipoteichoic acid (LTA) [1]: utilizes electrostatic interactions to interact with the cell walls of target bacteria
effect of added lipid II on activity (growth curves) [2]: reduced its activity
MIC (L. lactis MG1363): 0,78 μg/mL
membrane depolarization (DiSC3(5) fluorescence) (L. lactis): significant membrane depolarization
MIC [3]: 100 µg/mL (≈ 42 µM)
MIC (S. aureus LMG10147): 100 µg/mL (≈ 42 µM)
